In ChEMBL document CHEMBL1201862, “PubChem BioAssay data set” (2004):
The source made the active and inactive calls.

Columns and labels:
[1] = NIH3T3 cell viability loss – ATP luminescence, mouse fibroblasts, counter-screen, dose response (AID 2010); type: functional, cell-based;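 also: cells exposed to compound for about 90 hours before reading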
[2] = Trypanosoma cruzi growth suppression in host cells – NIH3T3 host cells, beta-gal luminescence, confirmation (AID 2044); type: functional, cell-based;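 also: intracellular parasites grown in NIH/3T3 mouse fibroblasts as host cells; luminescent beta-galactosidase reporter signal from transgenic T. cruzi replicating inside host cells; inhibitors lower the luminescence signal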
[3] = system: Streptococcus sp. 'group A'; assay: Streptococcus pyogenes SK(-)GAS viability under kanamycin – luminescence, BacTiterGlo, confirmation, counter-screen for streptokinase expression inhibitor project, dose response (AID 1900); type: functional, organism-based
[4] = system: Streptococcus; assay: GAS UMAA2166 growth inhibition – luminescence, BacTiterGlo, counter-screen for streptokinase expression inhibitor project, dose response (AID 1915); type: functional, organism-based;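 also: potency for reduction of bacterial viability or growth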
[5] = molecular target: T1, Heat shock factor protein 1 (Mus musculus, UniProt P38532); assay: decrease of HSF1-responsive luciferase luminescence – cell-based, NIH3T3, dose retest, confirmation (AID 2382); type: functional;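 also: NIH3T3 fibroblasts with HSF1-driven luciferase reporter stressed by proteasome inhibitor MG132; luminescence from HSF1-driven luciferase expression after 8 hours of MG132 stress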
T1 sequence (P38532 whole entry): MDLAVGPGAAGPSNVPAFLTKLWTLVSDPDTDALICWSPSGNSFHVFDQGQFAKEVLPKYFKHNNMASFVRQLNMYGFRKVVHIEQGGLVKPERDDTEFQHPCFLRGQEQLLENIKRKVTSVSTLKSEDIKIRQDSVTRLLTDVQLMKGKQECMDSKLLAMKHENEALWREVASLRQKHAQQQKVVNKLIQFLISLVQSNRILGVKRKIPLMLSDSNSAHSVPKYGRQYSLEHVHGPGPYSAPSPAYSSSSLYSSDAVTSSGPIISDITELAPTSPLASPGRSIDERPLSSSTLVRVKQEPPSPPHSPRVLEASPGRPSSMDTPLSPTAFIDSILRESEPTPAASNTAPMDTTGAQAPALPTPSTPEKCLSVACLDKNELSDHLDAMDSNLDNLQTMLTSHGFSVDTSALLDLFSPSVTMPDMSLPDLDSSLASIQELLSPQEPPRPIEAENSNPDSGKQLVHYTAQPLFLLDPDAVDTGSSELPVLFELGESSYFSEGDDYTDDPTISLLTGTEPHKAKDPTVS

[6] = molecular target: Cytochrome P450 2C19 (Homo sapiens, UniProt P33261); assay: Cytochrome panel assay with activity outcomes. Panel member name: p450-cyp2c19 Compounds with AC50 equal or less than 10 uM are considered active; type: functional
[7] = molecular target: Cytochrome P450 2D6 (Homo sapiens, UniProt P10635)
[8] = molecular target: Cytochrome P450 2C9 (Homo sapiens, UniProt P11712)
[9] = molecular target: T2, RNA-binding protein pos-1 (Caenorhabditis elegans, UniProt G5EF15); assay: disruptors of C. elegans POS-1 RNA interaction – biochemical, fluorescence polarization, dose response (AID 1964);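 also: purified POS-1 fused to maltose binding protein made in E. coli; potency of compounds blocking POS-1 binding to fluorescent RNA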
T2 sequence (G5EF15 whole entry): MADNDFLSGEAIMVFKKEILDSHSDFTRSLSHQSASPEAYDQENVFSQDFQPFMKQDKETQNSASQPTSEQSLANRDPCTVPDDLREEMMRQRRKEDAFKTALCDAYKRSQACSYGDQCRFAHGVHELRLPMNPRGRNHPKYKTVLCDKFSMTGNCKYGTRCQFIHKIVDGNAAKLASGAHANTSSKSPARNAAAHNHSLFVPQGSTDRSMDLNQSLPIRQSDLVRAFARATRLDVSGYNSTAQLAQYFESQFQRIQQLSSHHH

[10] = molecular target: T3, Zinc finger protein mex-5 (Caenorhabditis elegans, UniProt Q9XUB2); assay: potency of MEX-5 RNA-binding blockers – biochemical, C. elegans, fluorescence polarization, dose response (AID 1960)
T3 sequence (Q9XUB2 whole entry): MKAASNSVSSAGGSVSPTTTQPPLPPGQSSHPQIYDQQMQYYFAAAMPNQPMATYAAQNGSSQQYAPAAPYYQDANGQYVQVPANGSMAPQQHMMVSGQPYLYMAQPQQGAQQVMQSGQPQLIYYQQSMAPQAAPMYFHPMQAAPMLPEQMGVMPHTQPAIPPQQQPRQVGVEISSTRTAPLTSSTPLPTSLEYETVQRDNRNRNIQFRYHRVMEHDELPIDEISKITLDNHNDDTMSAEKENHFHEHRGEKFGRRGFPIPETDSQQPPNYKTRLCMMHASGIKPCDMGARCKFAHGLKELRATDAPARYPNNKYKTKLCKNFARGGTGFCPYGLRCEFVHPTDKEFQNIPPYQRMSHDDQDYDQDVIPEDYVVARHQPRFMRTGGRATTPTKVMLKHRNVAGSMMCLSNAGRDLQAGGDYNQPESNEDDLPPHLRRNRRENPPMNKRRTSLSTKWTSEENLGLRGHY

[11] = viability of HCT116 lacking mutant beta-catenin – cell-based, human colon tumor, dose response (AID 1045); type: functional;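 also: HCT116 colon tumor cells with beta catenin knocked out; cells exposed to compound for 60 hours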
[12] = viability of PTEN-deleted HCT116 cells – cell-based, HCT116 PTEN knockout, dose response (AID 1047); type: functional;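 also: HCT116 colon tumor cells with PTEN knocked out; cells exposed to compound for 60 hours before readout; potency for loss of cell viability measured by luminescence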

Cytochrome P450 2D6, sequence (P10635 whole entry): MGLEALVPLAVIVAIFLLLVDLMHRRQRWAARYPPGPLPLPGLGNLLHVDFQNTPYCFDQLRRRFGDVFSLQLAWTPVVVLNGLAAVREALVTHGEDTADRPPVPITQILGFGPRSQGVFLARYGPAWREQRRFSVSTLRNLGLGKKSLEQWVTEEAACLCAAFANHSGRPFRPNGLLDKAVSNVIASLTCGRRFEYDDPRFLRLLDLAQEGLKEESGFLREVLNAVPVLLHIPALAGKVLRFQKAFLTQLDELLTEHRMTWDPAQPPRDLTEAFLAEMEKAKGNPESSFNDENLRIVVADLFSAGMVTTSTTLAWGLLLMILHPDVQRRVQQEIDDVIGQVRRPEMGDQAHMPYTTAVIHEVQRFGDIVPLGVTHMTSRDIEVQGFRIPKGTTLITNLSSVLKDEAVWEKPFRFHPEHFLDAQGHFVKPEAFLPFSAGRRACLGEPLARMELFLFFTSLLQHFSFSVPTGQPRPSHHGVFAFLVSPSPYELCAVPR
Cytochrome P450 2C19, sequence (P33261 whole entry): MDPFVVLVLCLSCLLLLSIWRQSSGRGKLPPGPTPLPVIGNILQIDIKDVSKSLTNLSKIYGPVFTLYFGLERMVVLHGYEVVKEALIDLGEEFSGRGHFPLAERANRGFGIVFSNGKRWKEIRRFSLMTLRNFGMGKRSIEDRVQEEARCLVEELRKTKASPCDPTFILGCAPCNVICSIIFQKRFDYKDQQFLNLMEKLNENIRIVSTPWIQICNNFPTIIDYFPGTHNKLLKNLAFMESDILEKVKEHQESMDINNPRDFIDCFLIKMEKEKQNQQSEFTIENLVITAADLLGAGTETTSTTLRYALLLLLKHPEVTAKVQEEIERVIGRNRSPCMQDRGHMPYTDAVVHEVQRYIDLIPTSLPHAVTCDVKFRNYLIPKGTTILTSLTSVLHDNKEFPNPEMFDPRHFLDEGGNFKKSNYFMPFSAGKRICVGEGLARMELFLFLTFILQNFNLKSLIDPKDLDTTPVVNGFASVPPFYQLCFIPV
Cytochrome P450 2C9, sequence (P11712 whole entry, the tested form may be a part): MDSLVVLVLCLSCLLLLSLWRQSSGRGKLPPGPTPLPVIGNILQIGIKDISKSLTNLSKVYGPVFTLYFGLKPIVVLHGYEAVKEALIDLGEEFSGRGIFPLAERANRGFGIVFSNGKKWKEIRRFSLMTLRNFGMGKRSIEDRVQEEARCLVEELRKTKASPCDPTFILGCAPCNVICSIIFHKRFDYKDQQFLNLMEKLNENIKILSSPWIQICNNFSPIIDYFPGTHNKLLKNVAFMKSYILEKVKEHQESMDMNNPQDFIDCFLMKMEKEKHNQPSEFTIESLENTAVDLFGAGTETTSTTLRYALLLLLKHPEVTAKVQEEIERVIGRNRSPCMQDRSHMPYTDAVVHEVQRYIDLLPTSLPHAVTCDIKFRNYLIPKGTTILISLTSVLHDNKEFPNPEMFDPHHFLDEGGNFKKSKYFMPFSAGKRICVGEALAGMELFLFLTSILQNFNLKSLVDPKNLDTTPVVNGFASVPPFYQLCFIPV

## CCC(C)NCCOCCOc1ccc(Br)cc1 (stereo not drawn)
[1]
  EC50: > 60 µM (not active)
[2]
  EC50: 0.106 µM (active)

## Cc1ccc(-c2c[n+](CC(=O)c3ccc(Br)cc3)c3n2CCCCC3)cc1
[1]
  EC50: > 60 µM (not active)
[2]
  EC50: 0.465 µM (active)

## O=C(Nc1ccccc1C(=O)Nc1nnc(C(F)(F)F)s1)c1ccccc1Cl
[3]
  EC50: 1.36 µM (active)
[4]
  EC50: 3.2 µM (active)

## O=C(/C(=C(\[O-])c1ccccc1)[n+]1ccc2ccccc2c1)c1ccc([N+](=O)[O-])cc1
[5]
  EC50: > 195 µM (not active)

## O=C(NCc1ccccc1)C1=C[C@@H](c2ccc(C(F)(F)F)cc2)C[C@@H](OCc2ccc(CO)cc2)O1
[1]
  EC50: > 60 µM (not active)
[2]
  EC50: 0.669 µM (active)

## COC(=O)N1CCC2(CCN(C(=O)Nc3ccccc3)CC2)CC1
[6]; read-out: AC50
  AC50: 20 µM (inconclusive)

## COc1cccc(Cn2c(=O)cnc3cnc(Nc4cccc(OC)c4)nc32)c1
[7]
  AC50: 39.8 µM (inconclusive)

## COc1ccc(Cl)cc1C(=O)C1CCCN(Cc2cnc(N3CCOCC3)s2)C1 (stereo not drawn)
[1]
  EC50: > 60 µM (not active)
[2]
  EC50: 0.135 µM (active)

## CN(CCOc1ccccc1)CC(=O)Nc1ccc(Cl)c(S(=O)(=O)N(C)C)c1
[1]
  EC50: > 60 µM (not active)
[2]
  EC50: 0.503 µM (active)

## O=C(Nc1ccc(-n2nncc2-c2ccco2)cc1)c1ccc(F)cc1
[8]
  AC50: 11.2 µM (inconclusive)

## CCc1ccccc1N1C(=O)/C(=C/c2ccc(N3CCN(C)CC3)o2)C(=O)NC1=S
[9]
  EC50: > 300 µM (inconclusive)

## NS(=O)(=O)c1ccc2c(c1)C1C=CCC1C(C1CC=CCC1)N2 (stereo not drawn)
[9]
  EC50: 18.3 µM (active)
[10]
  EC50: 20.7 µM (inconclusive)

## CC(=O)C1=C(c2ccccc2)NC(=O)NC1c1ccc(O)c(O)c1 (stereo not drawn)
[9]
  EC50: > 300 µM (not active)
[10]
  EC50: 43.4 µM (active)

## CC1CCN(C(=O)CSc2nc(O)c3cnn(-c4ccc(Cl)cc4)c3n2)CC1
[5]
  EC50: > 195 µM (not active)

## CCCCCCn1c(N)c(C(=O)NCCN2CCOCC2)c2nc3ccccc3nc21
[11]
  EC50: 19.7 µM (active)
[12]
  EC50: 17.7 µM (active)

## COc1ccc(CNc2cc(-c3cccnc3)ncn2)c(OC)c1
[7]
  AC50: 39.8 µM (inconclusive)

## Cc1ccc(CCNC(=O)CN2C(=O)COc3ccccc32)cc1
[1]
  EC50: > 60 µM (not active)
[2]
  EC50: 16.4 µM (active)

## Cc1cc(C)nc(NN2C(=O)C=CC2=O)n1
[9]
  EC50: > 300 µM (not active)
[10]
  EC50: 40.8 µM (active)

## COc1cc(NC(=O)c2cccs2)c(C(=O)OCC(=O)c2cc(C)n(-c3ccc(F)cc3)c2C)cc1OC
[5]
  EC50: 4.87 µM (active)

## COc1ccc(OC)c(Nc2nc(-c3sc(NC(=O)C(C)(C)C)nc3C)cs2)c1
[5]
  EC50: > 195 µM (not active)

## COc1ccc(CNc2ccc3c(c2)CCC3)cc1OC
[1]
  EC50: > 30 µM (not active)
[2]
  EC50: 15.4 µM (active)

## C(=N\n1cncn1)/c1ccc(N2CCOCC2)cc1
[5]
  EC50: > 195 µM (not active)

## Oc1cccc2ccc(/C=C/c3ccc(Br)s3)nc12
[3]
  EC50: 2.56 µM (active)
[4]
  EC50: 4.33 µM (active)

## Cc1c(C(=O)O)cccc1-n1c(C)cc(/C=C(/C#N)C(=O)NCc2ccccc2)c1C
[9]
  EC50: > 300 µM (not active)
[10]
  EC50: > 300 µM (not active)

## C/C(=N\Nc1nncc2ccccc12)c1ccc(Cl)c([N+](=O)[O-])c1
[5]
  EC50: > 195 µM (not active)

## Cc1ccc(C)c(-c2cc(C(=O)NCc3cccs3)c3ccccc3n2)c1
[6]; read-out: AC50
  AC50: 3.55 µM (inconclusive)
[7]
  AC50: 14.1 µM (inconclusive)

## COc1ccc(CCn2c(=N)c(C(=O)NC3CCCCC3)cc3c(=O)n4ccccc4nc32)cc1
[9]
  EC50: 21.6 µM (active)
[10]
  EC50: 8.45 µM (inconclusive)

## CN(CCCNC(=O)c1ccc(/C=N/O)nc1)CCCN(C)Cc1ccccc1
[6]
  AC50: inconclusive

## Cc1ccc(-n2c(N)c(C(=O)Nc3c(C)n(C)n(-c4ccccc4)c3=O)c3nc4ccccc4nc32)cc1C
[11]
  EC50: 11.5 µM (active)
[12]
  EC50: 8.61 µM (active)

## COc1ccc(NC(=O)CN(C)S(=O)(=O)c2ccc3c(c2)CCC(=O)N3)c(OC)c1
[5]
  EC50: > 195 µM (not active)

## O=C(/C=C/c1ccco1)NC(=S)NNC(=O)c1ccco1
[9]
  EC50: 98.1 µM (active)
[10]
  EC50: 15.7 µM (active)

## Cc1ccc(N2CC(C(=O)Nc3nnc(SCCN4CCOCC4)s3)CC2=O)cc1 (stereo not drawn)
[5]
  EC50: > 195 µM (not active)

## CC(C)c1ccc(/C=C/C(=O)Nc2nc3ccc([N+](=O)[O-])cc3s2)cc1
[11]
  EC50: 41.3 µM (active)
[12]
  EC50: 23.3 µM (active)

## CC(C)(C)N1[C@@H](CC(=O)O)c2cc(C(F)(F)F)ccc2S1(=O)=O
[5]
  EC50: > 195 µM (not active)

## CN1CCN(c2ccc(S(=O)(=O)N3CCCCC3)cc2NC(=O)c2ccc(C#N)cc2)CC1
[1]
  EC50: > 60 µM (not active)
[2]
  EC50: 1.14 µM (active)

## COc1ccc(CNC(=O)C(=O)c2cn(CC(=O)N3CCOCC3)c3ccccc23)cc1
[5]
  EC50: > 195 µM (not active)

## CCCCCCCC(=O)NNC(=O)c1c(O)c2ccccc2n(CC)c1=O
[3]
  EC50: 2.31 µM (active)
[4]
  EC50: 6.17 µM (active)

## Cc1noc(C)c1-c1nc(NCc2cccs2)c2ccccc2n1
[7]
  AC50: 3.98 µM (inconclusive)

## C#CCN1C(=O)C(O)(CC(=O)c2ccc3c(c2)OCCO3)c2ccccc21 (stereo not drawn)
[11]
  EC50: 29.7 µM (active)
[12]
  EC50: 29.7 µM (active)

## CN(C)CCCn1c2ccccc2c2cnccc21
[7]
  AC50: 3.98 µM (inconclusive)

## NCCNc1ncnc2ccc(Cl)cc12
[7]
  AC50: 3.16 µM (inconclusive)

## FC(F)(F)COc1nc(N/N=C/c2cccnc2)nc(N2CCCCC2c2ccccn2)n1 (stereo not drawn)
[1]
  EC50: > 60 µM (not active)
[2]
  EC50: 2.37 µM (active)

## Fc1ccc(SCCc2ccncc2)cc1
[1]
  EC50: > 30 µM (not active)
[2]
  EC50: 1.27 µM (active)

## Cc1ccc(NC(=O)CCN2C(=O)c3ccncc3C2=O)cc1
[6]; read-out: AC50
  AC50: 39.8 µM (inconclusive)

## Cc1cc(N2C(=O)C(O)=C(C(=O)c3ccco3)C2c2ccc(O)cc2)no1 (stereo not drawn)
[6]; read-out: AC50
  AC50: 35.5 µM (inconclusive)

## CCOC(=O)C1=NNC2(c3ccc(Cl)cc3)C(=O)N(c3cc(C)cc(C)c3)C(=O)C12 (stereo not drawn)
[6]; read-out: AC50
  AC50: 2.51 µM (inconclusive)

## CC(C)=C1C2CCC1C1C(=O)N(c3ccc(C)c(C)c3)C(=O)C21 (stereo not drawn)
[5]
  EC50: > 195 µM (not active)

## C=CCN1C(=O)NC(=O)/C(=C(/CC)NC2CC2)C1=O
[6]; read-out: AC50
  AC50: 22.4 µM (inconclusive)
[7]
  AC50: 1.12 µM (inconclusive)

## O=C(NC1CCCCC1)C(c1ccc(F)cc1)N(C(=O)Cc1ccsc1)c1ccc(F)cc1 (stereo not drawn)
[1]
  EC50: > 60 µM (not active)
[2]
  EC50: > 60 µM (not active)

## Cc1ncn(-c2ccccc2O)c1C
[7]
  AC50: 3.16 µM (inconclusive)

## CCCCCCC1CC(C)(C(=O)CNc2nncs2)OC1=O (stereo not drawn)
[1]
  EC50: 23.8 µM (active)
[2]
  EC50: 1.3 µM (active)

## CC(=O)Nc1nc(-c2ccccc2)nc(-c2ccccc2OC(C)=O)n1
[11]
  EC50: 118 µM (active)
[12]
  EC50: 73.1 µM (active)

## COCc1cc(C)nc(SCC(=O)Nc2cc(C(F)(F)F)ccc2N2CCOCC2)c1C#N
[1]
  EC50: > 60 µM (not active)
[2]
  EC50: 0.807 µM (active)

## Cc1nn(-c2ccccn2)c2c1C(c1ccccc1Cl)C1=C(N2)c2ccccc2C1=O (stereo not drawn)
[11]
  EC50: 24.9 µM (active)
[12]
  EC50: 24.7 µM (active)

## CCOc1ccc2ccccc2c1C1NC(=O)N(C)C(C)=C1C(=O)OCCOC (stereo not drawn)
[9]
  EC50: > 300 µM (not active)
[10]
  EC50: > 300 µM (not active)

## Ic1cncc(OC[C@@H]2CCN2)c1
[6]; read-out: AC50
  AC50: 15.8 µM (inconclusive)
[7]
  AC50: 39.8 µM (inconclusive)
